Experimental data from patent publication US20120276225A1, “PHYTOESTROGENIC NUTRACEUTICAL COMPOSITION FROM PALM LEAF EXTRACT” (UNIVERSITI PUTRA MALAYSIA, priority 2009, published 2012).

Legend:
[1] = test system: vaginal epithelium in the immature female mice; details: cited from earlier work
[2] = test system: vaginal epithelium and uterus of ovarectomized female Sprague-Dawley rats; experiment: Estrogenic activity in bilaterally ovarectomized rats (vaginal cornification, uterine wet weight); assay type: in vivo, rat; details: positive control gavaged daily 5 mg/kg BW
Procedure: Phytoestrogenic enhancing activities of PLE were evaluated in normal and ovariectomised rats at 150 and 300 mg/kg doses. Estrogenic activity of the alcoholic extract was assessed in bilaterally ovarectomized female Sprague-Dawley rats taking percentage vaginal cornification, and uterine wet weight as parameters of assessment. Ovarectomized female rats (9 rats per group) given distilled water were used as a negative control, while rats gavaged daily with 5 mg/kg BW diethylstilbesterol were used as a positive control. At the end of treatment period of 14 days, rats were euthanized; the uteri were dissected and weighed, thereafter.

Structure (SMILES) | cornification of the vaginal epithelium [1] | cornification of the vaginal epithelium [2]
CC1(C)[C@H]2C(=COc3cc(O)ccc32)[C@]2(O)C(=O)C[C@]3(O)C[C@H]1[C@H]2[C@H]3O [Miroestrol] | produced cornification of the vaginal epithelium | –
CC/C(=C(/CC)c1ccc(O)cc1)c1ccc(O)cc1 [synthetic estrogen, diethylstilbesterol] | – | induced a cornification of the vaginal epithelium as early as the third day of treatment
